pEC50: −log10 of the molar value.
Legend:
[1] = Cytotoxicity against african green monkey Vero cells after 69 hrs by Alamar blue assay; format: cell-based; conditions: chlorocebus sabaeus
Human alphaherpesvirus 1 = experiment: Antiviral activity against HSV1 KOS in african green monkey Vero cells by plaque reduction assay; format: functional, organism-based; conditions: Human alphaherpesvirus 1, KOS
[2] = Ratio of CC50 for african green monkey Vero cells to EC50 for HSV1 KOS; format: functional
[3] = Partition coefficient, log P of the compound; format: physicochemical; conditions: octanol/water

Compound	CC50 at 69 h [1] [µM]	pEC50 (Human alphaherpesvirus 1)	Ratio CC50/EC50 [2]	logP [3]
O=C(O)CCNC(=O)c1cc(-c2cccc3ccccc23)cc(C(=O)NCCC(=O)O)n1	> 100	< 4.00		
O=C(CCNC(=O)c1cccc(C(=O)NCCC(=O)NO)n1)NO	> 100	< 4.00		
COC(=O)C(Cc1c[nH]cn1)NCc1cc(N(C)C)cc(C(=O)NC(Cc2c[nH]cn2)C(=O)OC)n1 (configuration not stated)	> 100	< 4.00		
CC(C)(C)SCCNC(=S)c1cccc(C(=S)NCCSC(C)(C)C)n1	37	4.82	2.5	4.4
CC(C)(C)SCCNC(=O)c1cccc(C(=O)NCCSC(C)(C)C)n1	500	4.10	6.3	2.7
CSCCNC(=O)c1cccc(C(=O)NCCSC)n1	> 100	< 4.00		
O=C(O)CCNC(=O)c1cccc(C(=O)NCCC(=O)O)n1	> 100	< 4.00		
O=C(CCNC(=O)c1cc(-c2cccc3ccccc23)cc(C(=O)NCCC(=O)NO)n1)NO	> 100	< 4.00		
Nc1nc2c(ncn2COCCO)c(=O)[nH]1 [ACYCLOVIR]	> 100	5.22		

From ChEMBL document CHEMBL1143232, “Antiviral activities against herpes simplex virus type 1 by HPH derivatives and their structure-activity relationships” (Bioorg Med Chem Lett, 2008)
